Assays:
[1] = biological target: T1, Alpha-2A adrenergic receptor (Homo sapiens, UniProt P08913); type: functional, cell-based
T1 sequence (P08913 whole entry): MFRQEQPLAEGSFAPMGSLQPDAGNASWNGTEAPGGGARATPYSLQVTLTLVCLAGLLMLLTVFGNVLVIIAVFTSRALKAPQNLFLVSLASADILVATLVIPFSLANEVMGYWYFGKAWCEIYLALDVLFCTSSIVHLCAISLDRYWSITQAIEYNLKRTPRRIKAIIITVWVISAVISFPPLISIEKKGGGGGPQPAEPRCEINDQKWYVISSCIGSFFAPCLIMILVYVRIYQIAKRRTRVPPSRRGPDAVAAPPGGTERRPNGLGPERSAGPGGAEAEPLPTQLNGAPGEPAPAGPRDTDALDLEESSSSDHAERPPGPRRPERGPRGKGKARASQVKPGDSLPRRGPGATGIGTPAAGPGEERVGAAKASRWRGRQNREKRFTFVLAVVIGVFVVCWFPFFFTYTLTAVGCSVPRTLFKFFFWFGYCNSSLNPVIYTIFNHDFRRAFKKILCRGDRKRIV

[2] = biological target: Vasopressin V1a receptor (Homo sapiens, UniProt P37288)
Vasopressin V1a receptor, sequence (P37288 whole entry): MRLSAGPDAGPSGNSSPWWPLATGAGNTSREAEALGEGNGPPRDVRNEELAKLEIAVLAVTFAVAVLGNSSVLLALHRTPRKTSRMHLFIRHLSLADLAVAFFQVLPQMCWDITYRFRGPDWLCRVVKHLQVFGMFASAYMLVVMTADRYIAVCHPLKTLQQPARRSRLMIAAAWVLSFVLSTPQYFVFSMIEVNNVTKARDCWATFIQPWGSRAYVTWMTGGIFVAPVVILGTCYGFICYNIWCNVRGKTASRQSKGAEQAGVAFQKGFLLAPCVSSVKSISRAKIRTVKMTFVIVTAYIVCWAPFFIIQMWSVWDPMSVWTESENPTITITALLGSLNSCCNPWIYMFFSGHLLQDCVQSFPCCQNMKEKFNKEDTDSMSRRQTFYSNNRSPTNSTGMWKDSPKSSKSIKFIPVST

[3] = biological target: Cannabinoid receptor 1 (Homo sapiens, UniProt P21554); type: functional, cell-based
Cannabinoid receptor 1, sequence (P21554 whole entry): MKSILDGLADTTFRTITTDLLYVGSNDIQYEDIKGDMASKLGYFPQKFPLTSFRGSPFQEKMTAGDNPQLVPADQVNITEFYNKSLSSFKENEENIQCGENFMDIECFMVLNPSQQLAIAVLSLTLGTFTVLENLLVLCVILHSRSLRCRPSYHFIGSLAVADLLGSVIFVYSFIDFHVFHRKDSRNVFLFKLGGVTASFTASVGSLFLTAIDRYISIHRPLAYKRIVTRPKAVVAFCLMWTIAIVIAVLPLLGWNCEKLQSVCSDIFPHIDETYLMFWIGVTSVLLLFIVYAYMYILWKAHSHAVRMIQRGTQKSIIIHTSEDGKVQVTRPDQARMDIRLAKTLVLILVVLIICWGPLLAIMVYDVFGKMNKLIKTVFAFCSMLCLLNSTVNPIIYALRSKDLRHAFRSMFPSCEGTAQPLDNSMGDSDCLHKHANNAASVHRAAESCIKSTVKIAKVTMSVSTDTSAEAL

[4] = biological target: Gamma-aminobutyric acid receptor subunit alpha-1 (Rattus norvegicus, UniProt P62813)
Gamma-aminobutyric acid receptor subunit alpha-1, sequence (P62813 whole entry): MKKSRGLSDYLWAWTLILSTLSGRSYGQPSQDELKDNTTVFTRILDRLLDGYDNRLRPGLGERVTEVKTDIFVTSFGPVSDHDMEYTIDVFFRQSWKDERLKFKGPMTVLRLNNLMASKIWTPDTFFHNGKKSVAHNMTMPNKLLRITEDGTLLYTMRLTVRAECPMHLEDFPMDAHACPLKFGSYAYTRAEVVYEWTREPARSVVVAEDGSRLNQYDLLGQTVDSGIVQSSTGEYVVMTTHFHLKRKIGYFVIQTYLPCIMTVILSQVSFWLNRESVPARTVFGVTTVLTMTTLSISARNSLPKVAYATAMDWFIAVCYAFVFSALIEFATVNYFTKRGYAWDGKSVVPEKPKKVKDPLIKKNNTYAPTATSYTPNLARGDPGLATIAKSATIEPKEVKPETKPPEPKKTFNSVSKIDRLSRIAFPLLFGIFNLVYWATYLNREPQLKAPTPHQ

[5] = biological target: T2, 5-hydroxytryptamine receptor 3A (Homo sapiens, UniProt P46098); type: functional
T2 sequence (P46098 whole entry): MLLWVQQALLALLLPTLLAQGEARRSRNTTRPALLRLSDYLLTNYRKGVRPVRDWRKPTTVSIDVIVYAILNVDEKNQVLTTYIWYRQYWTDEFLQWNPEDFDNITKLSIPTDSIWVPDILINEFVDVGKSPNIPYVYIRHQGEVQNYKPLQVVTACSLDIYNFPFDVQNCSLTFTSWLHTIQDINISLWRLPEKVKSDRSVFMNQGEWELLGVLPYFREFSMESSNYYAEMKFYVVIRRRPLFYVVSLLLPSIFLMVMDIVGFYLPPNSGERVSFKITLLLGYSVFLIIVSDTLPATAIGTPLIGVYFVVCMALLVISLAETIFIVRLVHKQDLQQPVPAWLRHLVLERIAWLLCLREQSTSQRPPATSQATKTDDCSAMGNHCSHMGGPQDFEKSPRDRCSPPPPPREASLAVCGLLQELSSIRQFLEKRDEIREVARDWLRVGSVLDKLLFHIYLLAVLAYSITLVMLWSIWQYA

[6] = biological target: T3, Neuropeptide Y receptor type 1 (Homo sapiens, UniProt P25929)
T3 sequence (P25929 whole entry): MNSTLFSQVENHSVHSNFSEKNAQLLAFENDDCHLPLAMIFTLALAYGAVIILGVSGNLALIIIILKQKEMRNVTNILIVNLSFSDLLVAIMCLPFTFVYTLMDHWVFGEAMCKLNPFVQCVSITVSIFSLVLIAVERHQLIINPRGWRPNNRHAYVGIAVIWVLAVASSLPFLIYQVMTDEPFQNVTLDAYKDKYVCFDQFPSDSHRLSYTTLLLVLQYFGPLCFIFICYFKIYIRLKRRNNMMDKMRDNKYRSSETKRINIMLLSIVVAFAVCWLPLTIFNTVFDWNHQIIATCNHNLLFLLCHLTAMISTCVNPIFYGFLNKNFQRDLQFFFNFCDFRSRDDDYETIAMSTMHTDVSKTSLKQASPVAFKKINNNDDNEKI

[7] = biological target: Delta-type opioid receptor (Homo sapiens, UniProt P41143)
Delta-type opioid receptor, sequence (P41143 whole entry): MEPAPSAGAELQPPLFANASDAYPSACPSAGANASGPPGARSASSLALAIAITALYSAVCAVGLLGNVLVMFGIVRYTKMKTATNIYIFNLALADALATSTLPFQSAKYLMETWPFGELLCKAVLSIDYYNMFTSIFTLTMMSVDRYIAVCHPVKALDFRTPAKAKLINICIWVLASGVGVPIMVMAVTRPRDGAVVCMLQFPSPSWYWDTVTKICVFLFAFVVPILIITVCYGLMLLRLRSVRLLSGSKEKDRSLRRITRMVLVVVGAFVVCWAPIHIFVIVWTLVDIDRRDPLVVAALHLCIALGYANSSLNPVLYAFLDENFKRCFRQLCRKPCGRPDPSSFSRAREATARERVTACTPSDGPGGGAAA

[8] = biological target: Kappa-type opioid receptor (Homo sapiens, UniProt P41145)
Kappa-type opioid receptor, sequence (P41145 whole entry): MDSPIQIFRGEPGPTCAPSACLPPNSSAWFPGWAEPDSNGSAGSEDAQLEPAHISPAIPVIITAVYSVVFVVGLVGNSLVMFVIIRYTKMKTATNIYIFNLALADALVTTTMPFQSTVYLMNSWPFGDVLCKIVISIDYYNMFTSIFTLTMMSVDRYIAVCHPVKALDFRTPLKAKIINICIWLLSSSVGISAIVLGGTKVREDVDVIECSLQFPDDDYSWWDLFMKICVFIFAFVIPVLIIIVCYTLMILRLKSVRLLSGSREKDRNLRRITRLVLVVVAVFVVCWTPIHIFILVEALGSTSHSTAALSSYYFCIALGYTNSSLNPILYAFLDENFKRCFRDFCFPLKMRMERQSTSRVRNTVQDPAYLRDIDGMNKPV

[9] = biological target: T4, Amine oxidase [flavin-containing] A (Homo sapiens, UniProt P21397); type: functional
T4 sequence (P21397 whole entry): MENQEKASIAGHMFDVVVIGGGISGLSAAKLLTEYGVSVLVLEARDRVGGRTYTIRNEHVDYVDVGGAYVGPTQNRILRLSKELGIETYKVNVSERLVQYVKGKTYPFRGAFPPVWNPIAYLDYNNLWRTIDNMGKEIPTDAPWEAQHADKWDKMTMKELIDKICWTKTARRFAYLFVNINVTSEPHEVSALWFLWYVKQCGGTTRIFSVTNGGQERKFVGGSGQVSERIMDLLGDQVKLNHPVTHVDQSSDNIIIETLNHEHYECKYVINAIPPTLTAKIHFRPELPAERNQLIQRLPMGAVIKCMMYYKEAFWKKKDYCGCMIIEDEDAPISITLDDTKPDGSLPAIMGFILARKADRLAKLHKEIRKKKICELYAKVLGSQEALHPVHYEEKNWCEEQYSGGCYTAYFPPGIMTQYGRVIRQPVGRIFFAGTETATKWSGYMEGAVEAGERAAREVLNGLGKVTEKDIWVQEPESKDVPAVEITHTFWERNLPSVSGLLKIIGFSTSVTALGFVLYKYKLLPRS

[10] = biological target: 5-hydroxytryptamine receptor 2A (Homo sapiens, UniProt P28223); type: functional, cell-based
5-hydroxytryptamine receptor 2A, sequence (P28223 whole entry): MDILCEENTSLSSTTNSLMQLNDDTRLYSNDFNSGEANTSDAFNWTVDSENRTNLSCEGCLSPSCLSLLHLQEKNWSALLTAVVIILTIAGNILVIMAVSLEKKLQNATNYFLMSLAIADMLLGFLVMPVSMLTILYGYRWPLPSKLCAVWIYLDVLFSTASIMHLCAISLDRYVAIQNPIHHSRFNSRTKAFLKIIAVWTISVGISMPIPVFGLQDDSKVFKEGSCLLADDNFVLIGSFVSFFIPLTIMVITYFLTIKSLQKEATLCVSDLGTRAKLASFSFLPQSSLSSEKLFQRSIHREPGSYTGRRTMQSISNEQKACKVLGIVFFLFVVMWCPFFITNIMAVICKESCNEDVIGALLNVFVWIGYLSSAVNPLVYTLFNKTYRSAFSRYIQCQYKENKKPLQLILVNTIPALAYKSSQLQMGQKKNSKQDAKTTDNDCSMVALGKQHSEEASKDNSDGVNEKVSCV

[11] = biological target: T5, 5-hydroxytryptamine receptor 2C (Homo sapiens, UniProt P28335)
T5 sequence (P28335 whole entry): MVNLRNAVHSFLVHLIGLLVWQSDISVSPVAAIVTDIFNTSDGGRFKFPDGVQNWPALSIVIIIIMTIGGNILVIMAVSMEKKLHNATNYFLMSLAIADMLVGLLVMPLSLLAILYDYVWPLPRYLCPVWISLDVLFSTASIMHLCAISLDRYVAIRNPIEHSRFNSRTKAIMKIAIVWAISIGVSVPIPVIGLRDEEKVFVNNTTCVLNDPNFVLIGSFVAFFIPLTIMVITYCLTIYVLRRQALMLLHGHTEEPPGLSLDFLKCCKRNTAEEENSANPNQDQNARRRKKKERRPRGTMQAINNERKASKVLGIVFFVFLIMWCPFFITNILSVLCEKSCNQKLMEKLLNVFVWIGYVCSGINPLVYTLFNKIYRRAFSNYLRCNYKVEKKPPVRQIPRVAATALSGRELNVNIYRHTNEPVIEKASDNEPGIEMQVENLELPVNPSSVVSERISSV
Further: assay procedure not described here.

Compound	AC50 [1] [µM]	AC50 [2] [µM]	AC50 [3] [µM]	AC50 [4] [µM]	AC50 [5] [µM]	AC50 [6] [µM]	AC50 [7] [µM]	AC50 [8] [µM]	AC50 [9] [µM]	AC50 [10] [µM]	AC50 [11] [µM]
COc1ccc2cccc(CCNC(C)=O)c2c1 [AGOMELATINE]	> 30	> 10	> 30	> 10	> 30	> 30	> 30	> 10	> 10	–	–
CC(=O)OCC(=O)[C@@]12OC3(CCCC3)O[C@@H]1C[C@H]1[C@@H]3CCC4=CC(=O)C=C[C@]4(C)[C@@]3(F)[C@@H](O)C[C@@]12C [AMCINONIDE]	> 10	> 10	–	> 10	> 30	> 10	> 30	> 10	> 10	> 10	> 30
CC(C)c1c(C(=O)Nc2ccccc2)c(-c2ccccc2)c(-c2ccc(F)cc2)n1CC[C@@H](O)C[C@@H](O)CC(=O)O [ATORVASTATIN]	> 10	> 30	> 30	> 10	> 30	> 30	> 30	> 10	> 10	–	> 30
CN1C(=O)COc2c(C(=O)NC3CN4CCC3CC4)cc(Cl)cc21 (stereo unspecified) [AZASETRON]	> 10	> 30	> 30	> 30	0.0162	> 30	> 30	> 30	> 30	–	> 30
Cc1cc2c(OCC(CNC(C)(C)C)OC(=O)c3ccccc3)cccc2[nH]1 (stereo unspecified) [BOPINDOLOL]	> 30	> 30	> 30	> 30	> 30	> 30	> 30	2.1	> 30	–	> 30
CN1C(=O)CC(=O)N(c2ccccc2)c2cc(Cl)ccc21 [CLOBAZAM]	> 10	> 10	–	> 10	> 10	> 10	> 30	14.1	> 10	> 10	> 30
CN[C@@H](C)[C@H](O)c1ccccc1 [EPHEDRINE]	> 10	> 10	> 30	> 10	> 30	> 30	> 30	> 10	> 10	–	> 30
C#CC1(OC(N)=O)CCCCC1 [ETHINAMATE]	> 10	> 10	–	> 10	> 30	> 10	> 30	> 10	> 10	> 10	> 30
O=C(CCCCC(=O)Nc1c(I)cc(I)c(C(=O)O)c1I)Nc1c(I)cc(I)c(C(=O)O)c1I [IODIPAMIDE]	> 10	> 10	–	> 10	> 30	> 10	> 30	> 10	> 10	> 10	> 30
CC(C)[N+](C)(CCC(C(N)=O)(c1ccccc1)c1ccccc1)C(C)C [ISOPROPAMIDE]	> 10	> 10	–	> 10	> 30	> 10	> 30	> 10	> 10	> 10	> 30
COC(=O)C1=C(C)NC(C)=C(C(=O)OC(C)C)C1c1cccc2nonc12 (stereo unspecified) [ISRADIPINE]	> 10	> 30	–	> 10	> 30	> 30	11	10.7	> 30	> 10	> 30
CN1CC[C@]23CCCC[C@H]2[C@H]1Cc1ccc(O)cc13 [LEVORPHANOL]	> 10	> 10	–	> 10	> 30	> 10	> 30	5.85	> 30	> 10	> 30
CC1=CC(=O)c2ccccc2C1=O [MENADIONE]	> 10	> 10	–	> 10	> 30	> 10	> 30	> 10	17	> 10	> 30
NC(=O)C[S+]([O-])C(c1ccccc1)c1ccccc1 (stereo unspecified) [MODAFINIL]	> 10	> 10	> 30	> 10	> 10	> 30	> 10	> 10	> 10	–	> 30
CN1CCCN=C1COC(=O)C(O)(c1ccccc1)C1CCCCC1 (stereo unspecified) [OXYPHENCYCLIMINE]	> 10	> 10	–	> 10	> 30	> 10	> 30	> 10	> 10	> 10	> 30
CN1CCC2=C(C1)C(c1ccccc1)c1ccccc12 (stereo unspecified) [PHENINDAMINE]	> 10	> 10	–	> 10	12	> 10	> 30	> 10	> 10	> 10	> 30
C#CCN[C@@H]1CCc2ccccc21 [RASAGILINE]	> 30	> 30	–	> 30	> 30	> 30	> 30	> 30	–	> 30	> 30
O=C1NCCN1CCN1CCC(c2cn(-c3ccc(F)cc3)c3ccc(Cl)cc23)CC1 [SERTINDOLE]	–	> 30	> 30	> 30	> 30	> 30	> 30	3.7	22	–	–
